# According to patent US20250017215A1, “LIQUID CARRIER CONCENTRATE COMPRISING AT LEAST ONE BENEFICIAL MICROORGANISM AND USES THEREOF” (priority 2021, published 2025):
# Tests used:
# [1] = system: Beauveria bassiana; experiment: Microbial viability of liquid carrier concentrates upon accelerated storage stability study (shelf-life), colony counting; type: cell-based; settings: storage at 25° C. without agitation
# Procedure: (§1) Standard procedure for microbial viability assessment of liquid carrier concentrates upon accelerated storage stability study (Shelf-life assessment) In order to evaluate the shelf-life of liquid carrier concentrate of the fungi, the liquid carrier concentrates were prepared by mixing 5 wt % of a commercial product (biopesticide) containing a beneficial microorganism and 95 wt % of the solvent to be tested.
# (§2) The commercial products tested were in powder form, and the beneficial microorganisms in the composition were: • Beauveria bassiana, • Paecilomyces lilacinus.
# (§3) For comparison, a control experiment without the solvent was prepared. For Beauveria bassiana and Paecilomyces lilacinus, 5 wt % of the powder commercial product was added to 95 wt % soybean oil, 2-ethylhexyl lactate or isoamyl laurate.
# (§4) The preparations were incubated under accelerated temperature test conditions, at 25° C. and the viability of the microorganism was evaluated after 0, 15 days, 1 month, 3 months, 6 months, 9 months, 12 months and 14 months of incubation without agitation. Trials were performed in duplicates.
# (§5) To confirm that the microorganisms were viable after determined incubation/storage time, traditional serial dilution and plating of the samples for colony counting were performed.
# (§6) For fungi evaluation, samples of 0.1 mL were taken from each preparation and added to 0.9 mL of an aqueous solution containing 0.1% of Tween 80 (polyoxyethylene sorbitan monooleate) to obtain a 10^−1 dilution. Then 0.1 mL of this dilution was added to 0.9 mL of the same aqueous solution successively until the most appropriate dilution was obtained (usually between 10-4 and 10-7). 0.2 mL of the most appropriate dilutions were spread into petri dishes containing the proper culture media for each microorganism and incubated (at 25° C. for Beauveria bassiana and Paecilomyces lilacinus), until the colony grew.
# (§7) The number of the colonies on each petri dish was counted and the results are expressed by colony forming units (CFU)/mL.
# (§8) Shelf-life assessment was done on two different fungi (Beauveria bassiana and Paecilomyces lilacinus) in Augeo SL191 solvent (formula (I), with R1, R2: methyl, and R3: H) and in three other benchmark solvents or oils according to the experimental procedures described above. For each microorganism, isoamyl laurate was tested in a different run series which explains the difference between its initial microorganism concentration (CFU/mL) and the one of the other three solvents. The recurrent colony counting was done at different incubation times: t=0, 15 days, 1 month, then every month until the CFU/mL value of a sample drops by two log 10 scale (>100 times), i.e. a reduction of 99%.
# [2] = system: Paecilomyces lilacinus; experiment: as above; type: cell-based; settings: storage at 25° C. without agitation
# Procedure: as §1, §2, §3, §4, §5, §6, §7, §8
smiles,measurement,setting,value
"CC1(C)OCC(CO)O1 (stereo not shown) [Augeo SL191, Solketal]",Viability after 14 months,[1]; 14 months,above 1E+06 CFU/mL
same,Viability after 14 months,[2]; 14 months,above 1E+06 CFU/mL
"CCCCC(CC)COC(=O)C(C)O (stereo not shown) [2-ethyl hexyl lactate, 2-ethylhexyl lactate]",Viability after 1 month,[1]; 1 month,less than 1E+05 CFU/mL
same,Viability after 1 month,[2]; 1 month,less than 1E+05 CFU/mL
